Assay results: patent US20120128593A1, “USE OF A MAGNETIC RESONANCE IMAGING MEDIUM COMPRISING HYPERPOLARIZED 13C PYRUVATE FOR THE DETECTION OF INFLAMMATION OR INFECTION” (priority 2010, published 2012)

Assay: T1 relaxation in human full blood
Assay type: physicochemical
Conditions: human full blood at 37° C.

With `CC(=O)C(=O)O` [[1-^13C]pyruvate, ^13C1-pyruvate] the T1 relaxation was “about 42 s”.
